Structures are written as SMILES.

Consider two molecules from ChEMBL document CHEMBL5291721, “A preclinical secondary pharmacology resource illuminates target-adverse drug reaction associations of marketed drugs” (Nat Commun, 2023).

Test [1] deals with T1, Muscarinic acetylcholine receptor M4 (Homo sapiens, UniProt P08173).
T1 sequence (P08173 whole entry): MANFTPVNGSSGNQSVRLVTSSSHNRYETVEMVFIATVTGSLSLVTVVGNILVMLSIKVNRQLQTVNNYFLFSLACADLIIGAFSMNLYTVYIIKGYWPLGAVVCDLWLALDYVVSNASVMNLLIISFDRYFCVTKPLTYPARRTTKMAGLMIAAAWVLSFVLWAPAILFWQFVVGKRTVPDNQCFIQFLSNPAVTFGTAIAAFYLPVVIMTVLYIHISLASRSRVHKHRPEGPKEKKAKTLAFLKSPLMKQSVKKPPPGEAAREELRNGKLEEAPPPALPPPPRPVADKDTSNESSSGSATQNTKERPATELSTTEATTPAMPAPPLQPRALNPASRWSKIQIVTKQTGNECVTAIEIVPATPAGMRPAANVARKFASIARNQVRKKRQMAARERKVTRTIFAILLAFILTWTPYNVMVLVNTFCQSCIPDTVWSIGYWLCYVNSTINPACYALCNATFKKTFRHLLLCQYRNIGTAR

The target in test [2] is D(1B) dopamine receptor (Homo sapiens, UniProt P21918).
D(1B) dopamine receptor, sequence (P21918 whole entry): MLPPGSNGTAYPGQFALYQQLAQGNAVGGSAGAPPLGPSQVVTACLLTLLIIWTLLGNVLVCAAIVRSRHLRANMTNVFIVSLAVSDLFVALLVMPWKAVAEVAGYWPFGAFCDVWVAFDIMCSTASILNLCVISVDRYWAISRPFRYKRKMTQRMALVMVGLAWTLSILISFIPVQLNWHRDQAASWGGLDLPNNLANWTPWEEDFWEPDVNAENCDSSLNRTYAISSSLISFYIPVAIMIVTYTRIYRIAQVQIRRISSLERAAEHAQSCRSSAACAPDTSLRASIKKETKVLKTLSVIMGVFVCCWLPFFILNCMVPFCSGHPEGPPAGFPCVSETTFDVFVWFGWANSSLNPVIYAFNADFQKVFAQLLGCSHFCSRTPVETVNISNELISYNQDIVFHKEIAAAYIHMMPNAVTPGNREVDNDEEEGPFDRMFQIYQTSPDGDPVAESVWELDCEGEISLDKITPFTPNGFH
In test [3] the target is T2, Oxysterols receptor LXR-beta (Homo sapiens, UniProt P55055).
T2 sequence (P55055 whole entry): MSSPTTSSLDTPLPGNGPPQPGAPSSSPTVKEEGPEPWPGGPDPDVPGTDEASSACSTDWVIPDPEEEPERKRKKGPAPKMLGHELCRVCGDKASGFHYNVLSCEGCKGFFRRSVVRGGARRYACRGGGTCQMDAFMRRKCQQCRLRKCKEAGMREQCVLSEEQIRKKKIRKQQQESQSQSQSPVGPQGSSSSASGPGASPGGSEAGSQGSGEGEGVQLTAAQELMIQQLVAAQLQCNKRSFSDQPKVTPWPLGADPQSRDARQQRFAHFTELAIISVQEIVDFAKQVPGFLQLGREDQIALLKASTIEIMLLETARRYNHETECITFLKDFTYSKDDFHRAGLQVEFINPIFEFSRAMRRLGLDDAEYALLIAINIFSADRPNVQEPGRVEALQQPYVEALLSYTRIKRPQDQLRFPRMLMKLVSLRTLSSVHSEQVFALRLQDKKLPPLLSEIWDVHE
Type of test: functional.

Test [4] has as its target T3, Retinoic acid receptor alpha (Homo sapiens, UniProt P10276).
T3 sequence (P10276 whole entry): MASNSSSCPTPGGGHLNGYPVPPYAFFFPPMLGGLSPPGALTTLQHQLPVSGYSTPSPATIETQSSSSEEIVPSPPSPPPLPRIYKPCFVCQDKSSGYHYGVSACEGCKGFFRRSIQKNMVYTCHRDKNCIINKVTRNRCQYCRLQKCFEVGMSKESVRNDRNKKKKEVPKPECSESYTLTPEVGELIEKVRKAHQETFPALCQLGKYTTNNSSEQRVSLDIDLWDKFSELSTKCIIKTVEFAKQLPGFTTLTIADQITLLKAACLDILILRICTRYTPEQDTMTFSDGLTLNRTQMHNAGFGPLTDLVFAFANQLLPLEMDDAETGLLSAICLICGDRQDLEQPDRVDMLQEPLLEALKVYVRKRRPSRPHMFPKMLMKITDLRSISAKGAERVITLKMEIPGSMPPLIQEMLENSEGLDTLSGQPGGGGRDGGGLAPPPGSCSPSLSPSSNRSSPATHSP
In kind it is functional, cell-based.
Further: assay procedure not described here.

A word on the AC50: it is the concentration at which the activity in the assay is half-maximal. A higher AC50 goes with activity only at high concentration. As for `CCOC(=O)[C@H](CCc1ccccc1)N[C@@H](C)C(=O)N1Cc2ccccc2C[C@H]1C(=O)O`, the half-maximal activity concentration (AC50) in test [1] and in test [2] was over 10 µM throughout.
On to `CC(C)/N=c1\cc2n(-c3ccc(Cl)cc3)c3ccccc3nc-2cc1Nc1ccc(Cl)cc1` [CLOFAZIMINE], for which the concentration at half-maximal activity (AC50) in test [3] and in test [4] was over 30 µM in each case.
